What was measured:
Assay type in all cases: in vivo
[1] = tested on: Twospotted spider mites (Tetranychus urticae Koch); test: Mite/insect screen, SM; details: for mortality at 200 ppm / mortality at 400 ppm: Tetranychus urticae, read-out: SM RESULTS %; for mortality at 200 ppm / SM RESULTS % / mortality at 400 ppm: percent mortality, SAW; for mortality at 200 ppm / SM RESULTS %: SM & MA RATE 200 PPM; for activity as miticides: summary statement in the description; for mortality at 400 ppm: SM & MA RATE 400 PPM
How it was run: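 Read-out: percent mortality after standard exposure periods. Test solutions were water dilutions of compound dissolved in acetone/alcohol (50:50) with emulsifier blends; leaves were sprayed to runoff on both surfaces and air-dried for one hour before exposure.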

[2] = tested on: Pseudoperonospora cubensis (downy mildew); test: Test 1 greenhouse foliar spray screen, downy mildew on squash; details: for DOWN MDEW: disease control rating, foliar spray on squash, 400 ppm (+++ at 100 ppm)
[3] = tested on: Puccinia recondita tritici (leaf rust); test: Test 1 greenhouse foliar spray screen, leaf rust on wheat; details: disease control rating, foliar spray on wheat, 400 ppm (+++ at 100 ppm)
[4] = tested on: melon aphids (Aphis gossypii Glover); test: Mite/insect screen, MA; details: percent mortality, SAW; for mortality at 200 ppm / mortality at 400 ppm: Aphis gossypii, read-out: MA RESULTS %; for mortality at 200 ppm / MA RESULTS %: SM & MA RATE 200 PPM; for mortality at 400 ppm: SM & MA RATE 400 PPM
How it was run: (§1)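 Percent mortality was scored after standard exposure periods, following spraying of leaves to runoff (both surfaces, 10 psi, 1 h drying) with water dilutions of compound in emulsifier-containing acetone/alcohol (50:50). Armyworms received excised treated leaves in dishes.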

[5] = tested on: Venturia inaequalis (apple scab); test: Test 1 greenhouse foliar spray screen, apple scab on apple seedling; details: disease control rating, foliar spray on apple seedling, 400 ppm (+++ at 100 ppm)
[6] = tested on: Erysiphe graminis tritici (powdery mildew); test: Test 1 greenhouse foliar spray screen, powdery mildew on wheat; details: disease control rating, foliar spray on wheat, 400 ppm (+++ at 100 ppm)
corn rootworm = test: Mite/insect screen, CRW; details: percent mortality; for mortality at 12 ppm / CRW RESULTS %: CRW RATE 12.00 PPM; for mortality at 12 ppm / mortality at 24 ppm: read-out: CRW RESULTS %; for mortality at 24 ppm: CRW RATE 24.00 PPM
How it was run: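 Corn rootworm mortality (%) was evaluated following standard exposure times. Test material was emulsified by dissolution in acetone/alcohol (1:1) containing sulfonate/nonionic emulsifier blends TOXIMUL R (23 g/L) and TOXIMUL S (13 g/L), and water-diluted to the indicated doses.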

[7] = tested on: Botrytis cinerea (gray mold); test: Test 1 greenhouse foliar spray screen, gray mold on grape berries; details: disease control rating, spray on grape berries, 400 ppm (+++ at 100 ppm)
[8] = tested on: southern armyworm (Spodopetra eridania Cramer); test: Mite/insect screen, SAW; details: percent mortality, SAW; for mortality at 200 ppm / mortality at 400 ppm: Spodoptera eridania, read-out: SAW RESULTS %; for mortality at 200 ppm / SAW RESULTS %: SM & MA RATE 200 PPM; for mortality at 400 ppm: SM & MA RATE 400 PPM
How it was run: as §1

[9] = tested on: Cercospora beticola (leaf spot); test: Test 1 greenhouse foliar spray screen, leaf spot on sugar beet; details: disease control rating, foliar spray on sugar beet, 400 ppm (+++ at 100 ppm)
[10] = tested on: Pyricularia oryzae (rice blast); test: whole plant or invertebrate; details: disease control rating, foliar spray on rice, 400 ppm (+++ at 100 ppm)
[11] = tested on: Septoria tritici (leaf blotch); test: Test 1 greenhouse foliar spray screen, leaf blotch on wheat; details: disease control rating, foliar spray on wheat, 400 ppm (+++ at 100 ppm)

Row | Compound | mortality at 200 ppm [1] | DOWN MDEW [2] | LEAF RUST [3] | mortality at 200 ppm [4] | APPL SCAB [5] | POWD MDEW [6] | mortality at 12 ppm (corn rootworm) | GRAY MOLD [7] | mortality at 200 ppm [8] | LEAF SPOT [9] | RICE BLAST [10] | LEAF BLOT [11] | mortality at 400 ppm [1] | mortality at 400 ppm [4] | mortality at 24 ppm (corn rootworm) | mortality at 400 ppm [8] | further results
1 | Clc1cc(NCCc2ccccc2)c2cccc(Cl)c2n1 [Example 93, 2,8-dichloro-N-(2-phenylethyl)-4-quinolinamine] | 0% | - (0-19% control at 400 ppm) | - (0-19% control at 400 ppm) | 0% | - (0-19% control at 400 ppm) | - (0-19% control at 400 ppm) | 0% | - (0-19% control at 400 ppm) | 0% | + (20-89% control at 400 ppm) | - (0-19% control at 400 ppm) | + (20-89% control at 400 ppm) |  |  |  |  | 
2 | Fc1cccc2c(NCCc3ccc(Br)cc3)ccnc12 [Example 94, N-[2-(4-bromophenyl)ethyl]-8-fluoro-4-quinolinamine] | 0% | +++ (90-100% control at 100 ppm) | +++ (90-100% control at 100 ppm) | 0% | - (0-19% control at 400 ppm) | + (20-89% control at 400 ppm) | 100% | - (0-19% control at 400 ppm) | 0% | +++ (90-100% control at 100 ppm) | +++ (90-100% control at 100 ppm) | + (20-89% control at 400 ppm) |  |  |  |  | activity as miticides [1]: particularly excellent activity
3 | Fc1cccc2c(NCCc3cccc(C(F)(F)F)c3)ccnc12 [Example 95, 8-fluoro-N-[2-[3-(trifluoromethyl)phenyl]ethyl]-4-quinolinamine] | 0% | +++ (90-100% control at 100 ppm) | +++ (90-100% control at 100 ppm) | 0% | + (20-89% control at 400 ppm) | + (20-89% control at 400 ppm) | 0% | + (20-89% control at 400 ppm) | 20% | + (20-89% control at 400 ppm) | ++ (90-100% control at 400 ppm) | +++ (90-100% control at 100 ppm) |  |  |  |  | SM RESULTS % [1]: 0%; activity against downy mildew ([2]; summary statement in the description): particularly excellent activity; MA RESULTS % [4]: 0%; CRW RESULTS % (corn rootworm): 0%; SAW RESULTS % [8]: 40%
4 | Fc1cccc2c(NCCc3ccc(Cl)cc3)ccnc12 [Example 96, N-[2-(4-chlorophenyl)ethyl)-8-fluoro-4-quinolinamine] | 0% | +++ (90-100% control at 100 ppm) | +++ (90-100% control at 100 ppm) | 0% | - (0-19% control at 400 ppm) | + (20-89% control at 400 ppm) | 0% | - (0-19% control at 400 ppm) | 100% | +++ (90-100% control at 100 ppm) | +++ (90-100% control at 100 ppm) | +++ (90-100% control at 100 ppm) |  |  |  |  | SM RESULTS % [1]: 0%; activity as miticides [1]: particularly excellent activity; MA RESULTS % [4]: 0%; CRW RESULTS % (corn rootworm): 0%; SAW RESULTS % [8]: 100%
5 | Fc1cccc2c(NCCc3ccc(Cl)cc3Cl)cc(Cl)nc12 [Example 98, 2-chloro-N-[2-(2,4-dichlorophenyl)ethyl]-8-fluoro-4-quinolinamine] | 0% | ++ (90-100% control at 400 ppm) | ++ (90-100% control at 400 ppm) | 0% | - (0-19% control at 400 ppm) | - (0-19% control at 400 ppm) | 0% | - (0-19% control at 400 ppm) | 0% | - (0-19% control at 400 ppm) | + (20-89% control at 400 ppm) | - (0-19% control at 400 ppm) |  |  |  |  | 
6 | FC(F)(F)c1cccc2c(NCCc3ccccc3)ccnc12 [Example 99, N-(2-phenylethyl)-8-(trifluoromethyl)-4-quinolinamine] | 0% | +++ (90-100% control at 100 ppm) | +++ (90-100% control at 100 ppm) | 0% | - (0-19% control at 400 ppm) | - (0-19% control at 400 ppm) | 0% | - (0-19% control at 400 ppm) | 0% | + (20-89% control at 400 ppm) | ++ (90-100% control at 400 ppm) | - (0-19% control at 400 ppm) |  |  |  |  | 
7 | Clc1ccc2c(NCCc3ccc(Cl)c(Cl)c3)ccnc2c1 [Example 101, 7-chloro-N-[2-(3,4-dichlorophenyl)ethyl]-4-quinolinamine] | 0% | +++ (90-100% control at 100 ppm) | + (20-89% control at 400 ppm) | 0% | + (20-89% control at 400 ppm) | +++ (90-100% control at 100 ppm) | 0% | - (0-19% control at 400 ppm) | 0% | +++ (90-100% control at 100 ppm) | - (0-19% control at 400 ppm) | - (0-19% control at 400 ppm) | 0% | 0% | 0% | 0% | 
8 | Fc1cccc(Cl)c1CCNc1ccnc2c(F)cccc12 [Example 103, N-[2-(2-chloro-6-fluorophenyl)ethyl]-8-fluoro-4-quinolinamine] | 0% | +++ (90-100% control at 100 ppm) | ++ (90-100% control at 400 ppm) | 0% | +++ (90-100% control at 100 ppm) | + (20-89% control at 400 ppm) | 0% | - (0-19% control at 400 ppm) | 0% | + (20-89% control at 400 ppm) | ++ (90-100% control at 400 ppm) | + (20-89% control at 400 ppm) | 0% | 0% | 0% | 0% | 
9 | FC(F)(F)c1ccc2c(NCCc3ccc(Cl)cc3Cl)ccnc2c1 [Example 104, N-[2-(2,4-dichlorophenyl)ethyl]-7-(trifluoromethyl)-4-quinolinamine] | 0% | ++ (90-100% control at 400 ppm) | - (0-19% control at 400 ppm) | 0% | + (20-89% control at 400 ppm) | - (0-19% control at 400 ppm) | 0% | - (0-19% control at 400 ppm) | 0% | + (20-89% control at 400 ppm) | - (0-19% control at 400 ppm) | - (0-19% control at 400 ppm) | 0% | 0% | 0% | 60% | 
